{
  "source": "patent US11712444B2",
  "about": "“Compositions and methods of treating neuronal injury” (CHILDREN'S MEDICAL CENTER CORPORATION, priority 2019, dated 2023)",
  "key": {"[1]": {"system": "metals in the retina, i.e., copper and zinc", "assay": "Autometallography (AMG) of metals in the retina after optic nerve crush (ONC)", "assay_type": "in vivo, mice", "conditions": "day 1 post ONC; intraocular injection immediately after ONC; TPEN 100 μM, PSP-2 50 μM, PSP-2+Cu 50 μM", "description": "Metals in the retina, i.e., copper and zinc, were visualized using autometallography. […] To determine whether copper chelators had any effect on this increase, the selective copper chelator PSP-2 was used. Mice were administered 3 μL of DMSO 1% in PBS (control), 100 μM TPEN (10 mM TPEN stock in DMSO diluted in PBS (DMSO 1%)), 50 μM PSP-2 (5 mM PSP-2 stock in DMSO diluted in PBS (DMSO 1%)), or 50 μM PSP-2+Cu (10 mM PSP-2+Cu in de-O2 water diluted in PBS (DMSO 1%) immediately after unilateral optic nerve crush (ONC). In these studies, the normal, intact retina was used as a reference.\n(§1) Experiments were performed in 8 to 9-week-old 129S1/SvImJ male mice (Jackson Laboratory, Bar Harbor, Me.). Mice were anesthetized prior to ONC surgery with ketamine and xylazine. The ONC surgery and euthanization of mice were performed as previously described in U.S. Publication No. 2014/079741, the contents of which are hereby incorporated by reference in their entirety. Briefly, a conjunctival incision was made over the dorsal aspect of one eye, which was then gently rotated downward in the orbit. The orbital muscles were slightly separated to expose the optic nerve at its exit from the globe, which was then crushed for 5 seconds with jewelers' forceps (Dumont number 5) near the back of the eye (within 0.5 mm). […]"}, "[2]": {"system": "GAP-43-positive axons in the optic nerve", "assay": "Axon regeneration after optic nerve crush (GAP-43-positive axons)", "assay_type": "in vivo, mice", "description": "To determine if copper chelation promotes axon regeneration after nerve injury, mice were administered treatments as described in Example 1 after bilateral ONC. […] An antibody against GAP-43 was used to detect growing axons (FIG. 4A-4D).\nas §1, with “mm). ONC was performed unilaterally for all autometallography experiments and bilaterally for all regeneration experiments. Treatments were administered unilaterally for all autometallography experiments and bilaterally for all regeneration experiments. Post-ONC treatments were administered by intraocular injection immediately after ONC surgery. Mice were sacrificed with an overdose of anesthesia. Tissue samples were snap-frozen for all autometallography experiments. Mice were perfused with saline followed by 4% paraformaldehyde (PFA) and the tissue samples were post-fixed in PFA for regeneration experiments.” for “mm).”\n(§2) Axon growth was determined by counting GAP-43-positive axons extending 0.5 and 1 mm from the crush site. The cross-sectional width of the nerve was measured at the 0.5 and 1 mm points. The number of axons per millimeter of nerve width was calculated and then averaged for the number of sections analyzed. The estimated number of axons per nerve was then calculated. Retinal ganglion cell survival was measured as the number of βIII-tubulin positive cells per mm^2."}, "retinal ganglion cells": {"system": "retinal ganglion cells", "assay": "Retinal ganglion cell survival after optic nerve crush (βIII-tubulin positive cells)", "assay_type": "in vivo, mice", "conditions": "two weeks post ONC", "description": "as §1, with “mm). ONC was performed unilaterally for all autometallography experiments and bilaterally for all regeneration experiments.” for “mm).”\nas §2"}, "[3]": {"system": "astrocyte-rich primary cortical neurons", "assay": "DTDP (dithiodipyridine) toxicity in astrocyte-rich primary cortical neurons", "assay_type": "cell-based", "conditions": "PSP-2 3 μM (FIG. 8)", "description": "FIG. 8 is a bar plot showing that DTDP (dithiodipyridine) toxicity in astrocyte-rich primary cortical neurons was reversed with PSP-2 (3 μM). DTDP is an agent oxidizing metallothioneins. Oxidation of metallothioneins leads to liberation of metals (zinc and copper) and cell death."}, "HT22 cell culture": {"system": "HT22 cell culture", "assay": "Glutamate toxicity in HT22 cell culture", "assay_type": "cell-based", "conditions": "PSP-2 50 μM (FIG. 9)", "from_the_text": "Glutamate toxicity is a model of ferroptotic cell death. Glutamate toxicity and ferroptosis are likely involved in retinal ganglion cell (RGC) death post-optic nerve crush (ONC)."}, "[4]": {"conditions": "cited from earlier work"}},
  "note": "“Also recorded” adds a separate entry of the source.",
  "data": [
    {"smiles": "CP(C)(=S)CP(CCP(CP(C)(C)=S)CP(C)(C)=S)CP(C)(C)=S", "note": "[PSP-2]", "values": [
      {"measurement": "autometallography (AMG) signal in the retina", "setting": "[1]", "value": "reduced the autometallography signal; also recorded: reduced metal autometallography (AMG) signal"},
      {"measurement": "axon regeneration, dose dependence", "setting": "[2]; 2 weeks post ONC, FIG. 7A", "value": "improved axon regeneration in a dose-dependent manner"},
      {"measurement": "axon regeneration at 0.5 mm distance from the site of ONC", "setting": "[2]; two weeks post ONC, 0.5 mm, PSP-2 50 μM intraocular", "value": "improved axon regeneration"},
      {"measurement": "axon regeneration at 1.0 mm distance from the site of ONC", "setting": "[2]; two weeks post ONC, 1.0 mm, PSP-2 50 μM intraocular", "value": "improved axon regeneration"},
      {"measurement": "survival of retinal ganglion cells", "setting": "retinal ganglion cells", "value": "did not significantly affect survival of retinal ganglion cells; also recorded: did not improve retinal ganglion cell (RGC) survival"},
      {"measurement": "DTDP-induced cell death", "setting": "[3]", "value": "reversed"},
      {"measurement": "glutamate-induced cell death", "setting": "HT22 cell culture", "value": "partially alleviated"}
    ]},
    {"smiles": "CP(C)(=S)CP(CP(C)(C)=S)c1cccc2cccc(P(CP(C)(C)=S)CP(C)(C)=S)c12", "note": "[naphPS]", "values": [
      {"measurement": "dissociation constant, Cu(I)", "setting": "[4]", "value": 0.8, "unit": "zM"}
    ]},
    {"smiles": "c1ccc(CN(CCN(Cc2ccccn2)Cc2ccccn2)Cc2ccccn2)nc1", "note": "[TPEN, N, N, N′, N′-tetrakis(2-pyridylmethyl) ethylenediamine, reference compound]", "values": [
      {"measurement": "autometallography (AMG) signal in the retina", "setting": "[1]", "value": "reduced the autometallography signal"}
    ]},
    {"smiles": "CP(C)(=S)CP(CP(C)(C)=S)c1ccccc1P(CP(C)(C)=S)CP(C)(C)=S", "note": "[PhenPS]", "values": [
      {"measurement": "dissociation constant, Cu(I)", "setting": "[4]", "value": "about 0.6 zM"}
    ]}
  ]
}
